# Laboratory results: patent publication US20110182888A1, “Administration of an Inhibitor of HDAC, an Inhibitor of HER-2, and a Selective Estrogen Receptor Modulator” (priority 2008, published 2011)
# Legend:
# [1] = test system: erbB2-overexpressing SKBR3, BT474, and MDA-MB-453 cells; assay: Apoptotic-ELISA, western blots on PARP cleavage and caspase-3, -8, -9 activation, flow cytometry in erbB2-overexpressing cells; type: cell-based, human; details: SNDX-275 5 μM; SKBR3, BT474, MDA-MB-453 cells
# From the text: (§1) SNDX-275 had little effect on apoptosis induction and cell cycle progression in basal breast cancer MDA-MB-468, MDA-MB-231, and BT20 cells. […] Moreover, elevated expression of erbB3 via transfection with erbB3-containing expression vector abrogated SNDX-275-induced inactivation of the downstream signaling, apoptosis, and cell cycle arrest, whereas knockdown of erbB3 and/or erbB2 expression with specific shRNAs enhanced the efficacy of SNDX-275-induced inactivation of the downstream signaling, apoptosis, and cell cycle arrest in SKBR3 and BT474 cells.
# [2] = test system: basal breast cancer MDA-MB-468, MDA-MB-231, and BT20 cells; assay: apoptosis induction and cell cycle progression in basal breast cancer cells; type: cell-based, human; details: MDA-MB-468, MDA-MB-231, BT20 cells
# From the text: as §1
# [3] = test system: erbB2-overexpressing breast cancer cells; assay: cell proliferation (MTS) assays, erbB2-overexpressing vs basal breast cancer cells; type: cell-based, human; details: MTS assay; erbB2-overexpressing breast cancer cells compared to basal cells
# From the text: as §1
# [4] = test system: P-erbB3, P-erbB2, P-MAPK, P-Akt, erbB3 and erbB2 in SKBR3, BT474 and MDA-MB-453 cells; assay: erbB receptor and downstream signaling levels upon SNDX-275 treatment; type: cell-based, human
# From the text: as §1
# SKBR3 and BT474 cells = assay: erbB3 overexpression or erbB3/erbB2 shRNA knockdown and SNDX-275 response; type: cell-based, human
# From the text: as §1
# [5] = test system: human breast cancer cells; details: through induction of TGFβ type II receptor or TRAIL expression, or degradation of DNMT1; cited from earlier work
compound,measurement,setting,value
"Nc1ccccc1NC(=O)c1ccc(CNC(=O)OCc2cccnc2)cc1 [SNDX-275, N-(2-aminophenyl)-4-(N-(pyridin-3-ylmethoxycarbonyl)aminomethyl)benzamide]",apoptosis and cell cycle arrest,[1],induced apoptosis and cell cycle G1 arrest
same,apoptosis induction and cell cycle progression,[2],little effect
same,growth inhibition,[3],much stronger growth inhibition
same,erbB2 receptor,[4],lesser reduction
same,erbB3 protein,[4],rapid decrease
same,"levels of P-erbB3, P-erbB2, P-MAPK, and P-Akt",[4],significantly decreased
same,"efficacy of SNDX-275-induced inactivation of downstream signaling, apoptosis, and cell cycle arrest with erbB3 and/or erbB2 knockdown","SKBR3 and BT474 cells; specific shRNAs, SKBR3 and BT474 cells",enhanced
same,"SNDX-275-induced inactivation of downstream signaling, apoptosis, and cell cycle arrest with elevated erbB3 expression",SKBR3 and BT474 cells; transfection with erbB3-containing expression vector,abrogated
same,proliferation and apoptosis,[5],inhibit proliferation and induce apoptosis
